According to patent US11478466B2, “Small molecule promoting osteoblast differentiation” (Cornell University, priority 2019, dated 2022):
Where two headings read alike, the source gives them in different places.

Assays:
[1] = system: alkaline phosphatase (ALP); test: cells; conditions: Mus musculus; for activation at 10 µM: C2C12, 96 h
Source text: (§1) To identify small-molecule activators of osteoblast differentiation, we measured ALP activity using a fluorescent emission assay as a reporter for enzymatic digestion of ALP substrate in lysates derived from C2C12 myoblasts. […] Therefore, before screening, the assay was calibrated using recombinant human BMP4 protein as a positive control. Compounds were robotically deposited onto 384-well plates and then overlaid by C2C12 cells for a 4-day culture period, followed by lysis and fluorescent substrate assays (FIG. 1A; Table 1). To ensure uniformity, C2C12 cells were maintained in normal culture medium containing 10% fetal bovine serum, and lysis and substrate addition achieved using a microplate multidrop device. The primary screen (Table 2) encompassed greater than 47,000 small molecules tested at a final concentration of 10 μM.
(§2) For the primary screen, library compounds were distributed onto 384-well microplates (Greiner Bio-One 781091) at a final concentration of 10 μM in culture medium using a Perkin Elmer Janus automated workstation and WinPrep Version 4.8.3.315. Positive (rhBMP4, 1 ng/ml, R&D Systems) and negative controls (DMSO, 0.2%) were manually added to each plate by multichannel pipet. C2C12 cells were seeded onto compounds and controls at a density of 2000/well using a Thermo Multidrop Combi reagent dispenser and cultured for 4 days at 37° C., 5% CO2. Culture medium was aspirated using a BioTek EL406 plate washer and cells were lysed in RIPA buffer (Millipore 20-188) at ambient temperature for 10 minutes. 10 μl fluorescent alkaline phosphatase substrate (AttoPhos, Promega S1000) was added to lysates and incubated an additional 10 minutes before measuring the fluorescence (Excitation 450 nm/Emission 580 nm) on a BioTek Synergy Neo2 stacking microplate reader. Plates were processed and relative fluorescence raw values measured in stacks of 10-20. The data were processed using Collaborative Drug Discovery web-based software (CDD Vault) to determine Z score calculated on DMSO control wells and percent activation normalized against positive and negative controls (NPA). Cherry-picked hit candidates were re-tested in concentration response experiments, from which 4 candidates were chosen and purchased for further testing from either ChemBridge or Enamine, based on availability.
(§3) We also purchased a library of 154 structural chemical analogs assembled by ChemBridge Corp. from available screening library compounds.

[2] = system: alkaline phosphatase (ALP); conditions: for RFU Score (10 μM): 154-analog library, C2C12, duplicate; for RFU Score Threshold ≥ 800: Ex 450/Em 580 nm, rank in brackets not taken; for Fluorescence Z Score Threshold ≥ 10: Z score on DMSO control wells
Source text: as §1, §2, §3

[3] = read-out: NPA Score Threshold ≥ 5.0 (normalized percent activation)
[4] = primary screen, 10 μM, C2C12, 4 days

| Compound | activation at 10 µM [1] | RFU Score (10 μM) ([2]; 10 μM) | other results |
| --- | --- | --- | --- |
| CN1CC2(CCN(C(=O)c3[nH]cnc3-c3ccccc3)C2)OC1=O (stereo not drawn) [RU-0253075] | 7.71% | 500 |  |
| Cc1cc(C)c2[nH]c(=O)c(-c3nccn3CCc3cn[nH]c3)cc2c1 [RU-0253216] | 2.09% | 341 |  |
| CCN1CCN(CCOc2ccccc2-c2[nH]cnc2-c2ccccc2)CC1 [RU-0253941] | 9.34% | 547 |  |
| c1cc2c(cc1NC1CCCNC1)OCCO2 (stereo not drawn) [RU-0256394] |  |  | activation at 10 µM [1, 3]: 5.87%; RFU Score Threshold ≥ 800 [2, 4]: Below Threshold; Fluorescence Z Score Threshold ≥ 10 [2, 4]: Below Threshold |
| Cc1cc(C)c2[nH]c(=O)c(CN(C)Cc3c(C)noc3C)cc2c1 [RU-0259020] | 8.18% | 514 |  |
| CN(C)CC1(O)CCCN(S(=O)(=O)c2ccc(-c3ccccc3)cc2)CC1 (stereo not drawn) [RU-0259574] |  |  | activation at 10 µM [1, 3]: 9.87%; RFU Score Threshold ≥ 800 [2, 4]: 903 (16); Fluorescence Z Score Threshold ≥ 10 [2, 4]: Below Threshold |
| CC(=O)Nc1ccc2nc(-c3[nH]cnc3-c3ccccc3)ccc2c1 [RU-0260066] | 6.14% | 456 |  |
| O=C(c1[nH]cnc1-c1ccccc1)N1CCOC(c2ccc(Cl)cc2)C1 (stereo not drawn) [RU-0261164] | 9.24% | 544 |  |
| c1ccc2c(N3CCN(Cc4cc5n(n4)CCCNC5)CC3)nsc2c1 [RU-0261349] |  |  | activation at 10 µM [1, 3]: 5.04%; RFU Score Threshold ≥ 800 [2, 4]: 884 (18); Fluorescence Z Score Threshold ≥ 10 [2, 4]: 11.32 (22) |
| CCC(c1cccnc1)N(C)Cc1cc2cc(C)cc(C)c2[nH]c1=O (stereo not drawn) [RU-0261450] | 9.03% | 538 |  |
| O=C(N[C@H]1CC[C@H](n2cnnc2)CC1)c1[nH]cnc1-c1ccccc1 [RU-0261757] | 7.99% | 508 |  |
| COc1ccc(-c2[nH]nnc2-c2ccccc2)cc1Cn1cncn1 [RU-0262240] | 7.55% | 496 |  |
| CN1CCC(Cc2noc(CCC(=O)c3ccccc3)n2)CC1 [RU-0262489] |  |  | activation at 10 µM [1, 3]: 5.43%; RFU Score Threshold ≥ 800 [2, 4]: Below Threshold; Fluorescence Z Score Threshold ≥ 10 [2, 4]: Below Threshold |
| O=C1NCC2(CCCN(C(=O)c3[nH]cnc3-c3ccccc3)C2)O1 (stereo not drawn) [RU-0264094] | 10.6% | 583 |  |
| COc1cccc(-c2[nH]cnc2-c2ccccc2)c1OCCn1ccnc1 [RU-0265092] | 6.93% | 478 |  |
| Cc1cc(C)c2[nH]c(=O)c(-c3c(-c4ccccc4)ncn3C3CCNC3)cc2c1 (stereo not drawn) [RU-0266582] |  |  | EC50 ([1]; C2C12): 1.42 µM; Fluo. Z Score ([2]; SAR of library and proprietary analogs, AttoPhos assay, C2C12): 0.48 ± 1.10 |
| Cc1cc(C)c2[nH]c(=O)c(CN3CCOC4(CNCCOC4)C3)cc2c1 (stereo not drawn) [RU-0267267] | 9.71% | 557 |  |
| C=CCN(Cc1ccc(F)cc1)C(=O)c1c[nH]c2c(C)cccc2c1=O [RU-0268068] |  |  | activation at 10 µM [1, 3]: 5.81%; RFU Score Threshold ≥ 800 [2, 4]: Below Threshold; Fluorescence Z Score Threshold ≥ 10 [2, 4]: Below Threshold |
| O=C(c1[nH]cnc1-c1ccccc1)N1C[C@H](O)[C@@H](N2CCOCC2)C1 [RU-0268325] | 2.04% | 339 |  |
| CCOC(=O)N1CCC(Nc2ncnc3ccsc23)CC1 [RU-0269711, ethyl 4-(thieno[2,3-e]pyrimidin-4-ylamino)piperidine-1-carboxylate] |  |  | EC50 ([1]; C2C12, read-out: Measured EC50): 28.3 µM; RFU Score Threshold ≥ 800 [2, 4]: 1070 (7); Fluorescence Z Score Threshold ≥ 10 [2, 4]: 14.73 (15); NPA Score Threshold ≥ 5.0 (normalized percent activation) ([2]; primary screen, 10 μM, C2C12, 4 days, normalized against rhBMP4 positive and DMSO negative controls): Below Threshold |
| CN(C)CC1(O)CCCN(C(=O)c2[nH]cnc2-c2ccccc2)C1 (stereo not drawn) [RU-0424441] | 3.04% | 368 |  |

| Compound | activation at 10 µM [1] | RFU Score (10 μM) ([2]; 10 μM) | other results |
| --- | --- | --- | --- |
| CN1CCN(C(=O)c2[nH]cnc2-c2ccccc2)CC1C(=O)O (stereo not drawn) [RU-0424442] | 0.18% | 287 |  |
| CCOc1cccc(-c2[nH]cnc2-c2ccccc2)c1OCC(=O)O [RU-0424443] | 0.87% | 306 |  |
| Cc1cc(C)c2[nH]c(=O)c(CN(C)CCc3scnc3C)cc2c1 [RU-0424444] | 5.79% | 446 |  |
| Cc1ccc2[nH]c(C(=O)O)c(-c3[nH]cnc3-c3ccccc3)c2c1 [RU-0424445] | 4.67% | 364 |  |
| O=C(c1[nH]cnc1-c1ccccc1)N1CCc2onc(-c3ccccc3)c2C1 [RU-0424446] | 1.54% | 325 |  |
| Cc1cc(C)c2[nH]c(=O)c(CN(C)Cc3nc(-c4cccnc4)no3)cc2c1 [RU-0424447] | 0.54% | 297 |  |
| Cc1cc(C)c2[nH]c(=O)c(CN3C[C@@H](C)O[C@@H](C)C3)cc2c1 [RU-0424448] | -1% | 253 |  |
| Cc1cc(C)c2[nH]c(=O)c(CN3CCC(c4nncn4C)CC3)cc2c1 [RU-0424449] | 0.1% | 284 |  |
| Cc1nn(C)c(N2CCOCC2)c1-c1[nH]cnc1-c1ccccc1 [RU-0424450] | 0.24% | 288 |  |
| Cc1cc(C)c2[nH]c(=O)c(CN(Cc3nccn3C)C3CC3)cc2c1 [RU-0424451] | 0.82% | 305 |  |
| Cc1cc(C)c2[nH]c(=O)c(CN3CCC(CN)C3)cc2c1 (stereo not drawn) [RU-0424452] | 1.65% | 328 |  |
| O=C(c1[nH]cnc1-c1ccccc1)N1CC(c2cccnc2)C1 [RU-0424453] | 1.46% | 323 |  |
| O=C(c1[nH]cnc1-c1ccccc1)N1CCN2C(=O)OCC2C1 (stereo not drawn) [RU-0424454] | 1.83% | 333 |  |
| O=C(c1[nH]cnc1-c1ccccc1)N1CCc2[nH]nc(-c3ccccc3)c2C1 [RU-0424455] | 2.3% | 347 |  |
| Cc1cc(C)c2[nH]c(=O)c(CN3CCC(Oc4ncccn4)CC3)cc2c1 [RU-0424456] | 0.99% | 310 |  |
| Cc1cc(C)c2[nH]c(=O)c(CN3CCCC(CS(C)(=O)=O)C3)cc2c1 (stereo not drawn) [RU-0424457] | 0.13% | 285 |  |
| Cc1cc(C)c2[nH]c(=O)c(CN3CCCC(N4CCCC4=O)C3)cc2c1 (stereo not drawn) [RU-0424458] | 0.87% | 306 |  |
| Cc1cc(C)c2[nH]c(=O)c(CN(C)Cc3noc(C4CC4)n3)cc2c1 [RU-0424459] | 3.58% | 383 |  |
| O=C(c1[nH]cnc1-c1ccccc1)N1CCC(O)(CO)CC1 [RU-0424460] | 5.19% | 429 |  |
| Cc1cc(C)c2[nH]c(=O)c(-c3nccn3[C@@H]3CS(=O)(=O)C[C@H]3O)cc2c1 [RU-0424461] | 4.15% | 399 |  |
| Cc1cc(C)c2[nH]c(=O)c(C3CC(=O)NCc4nc5ccccn5c43)cc2c1 (stereo not drawn) [RU-0424462] | 7.81% | 503 |  |

| Compound | activation at 10 µM [1] | RFU Score (10 μM) ([2]; 10 μM) | other results |
| --- | --- | --- | --- |
| CC1(C2CCN(C(=O)c3[nH]cnc3-c3ccccc3)CC2)NC(=O)NC1=O (stereo not drawn) [RU-0424463] | 4.96% | 422 |  |
| CCCN(Cc1nccn1C)C(=O)c1[nH]cnc1-c1ccccc1 [RU-0424464] | 1.72% | 330 |  |
| Cc1cc(C)c2[nH]c(=O)c(-c3nccn3Cc3ccccn3)cc2c1 [RU-0424465] | 5.14% | 427 |  |
| Cn1cnnc1Sc1ccc(-c2[nH]cnc2-c2ccccc2)o1 [RU-0424466] | 8.64% | 527 |  |
| CO[C@H]1CN(C(=O)c2[nH]cnc2-c2ccccc2)CC[C@H]1N [RU-0424467] | 7.99% | 508 |  |
| COc1ncccc1-n1ccnc1-c1cc2cc(C)cc(C)c2[nH]c1=O [RU-0424468] | 7.97% | 508 |  |
| Cc1cc(C)c2[nH]c(=O)c(CN(C)Cc3cc(-c4cccnc4)no3)cc2c1 [RU-0424469] | 8.96% | 536 |  |
| O=C1OCC2(CCN(C(=O)c3[nH]cnc3-c3ccccc3)CC2)O1 [RU-0424470] | 7.58% | 497 |  |
| Cc1cc(C)c2[nH]c(=O)c(CN3CCCC4(C3)CN(C)C(=O)O4)cc2c1 (stereo not drawn) [RU-0424471] | 8.55% | 524 |  |
| COc1ccccc1N1CCN(C(=O)c2[nH]cnc2-c2ccccc2)CC1=O [RU-0424472] | 4.08% | 397 |  |
| CCNC(=O)[C@@H]1CCCN1Cc1cc2cc(C)cc(C)c2[nH]c1=O [RU-0424473] | 6.63% | 470 |  |
| Cc1cc(C)c2[nH]c(=O)c(C3c4nc[nH]c4CCN3Cc3ccco3)cc2c1 (stereo not drawn) [RU-0424474] | 10% | 566 |  |
| O=C(Nc1cnc2n1CCCC2)c1[nH]cnc1-c1ccccc1 [RU-0424475] | 6.39% | 491 |  |
| Cc1cc(C)c2[nH]c(=O)c(CN3C[C@H]4CC[C@@H](C3)N(C)C4=O)cc2c1 [RU-0424476] | 8.41% | 520 |  |
| CN(C)C1CCN(C(=O)c2cccc(-c3[nH]cnc3-c3ccccc3)c2)C1 (stereo not drawn) [RU-0424477] | 6.59% | 469 |  |
| CCC(C)Sc1ccc(-c2[nH]cnc2-c2ccccc2)cn1 (stereo not drawn) [RU-0424478] | 2.79% | 361 |  |
| CCN(CCN(C)C)C(=O)c1cccc(-c2[nH]cnc2-c2ccccc2)c1 [RU-0424479] | 8.57% | 525 |  |
| CC(C)(O)C#Cc1ccc(-c2[nH]cnc2-c2ccccc2)cc1 [RU-0424480] | 10.4% | 575 |  |
| O=C(O)Cc1cc(C2CCN(C(=O)c3[nH]cnc3-c3ccccc3)CC2)[nH]n1 [RU-0424481] | 8.62% | 526 |  |
